In US3965180A, “4'-Fluoro-4-{[4-(phenyl)-4-alkoxy-cyclo-hexyl]amino}butyrophenones and the salts thereof” (The Upjohn Company, priority 1973, dated 1976) one finds ED50 data, which are given here for three molecules.

The structures appear in SMILES notation. Where a name gives a salt, the structure may show the parent alone.

What all share (type): in vivo
The subject of experiment [1] is mice. Put plainly: Chimney test (ability of mice to back up and out of a vertical glass cylinder within 30 seconds). Conditions: Mus musculus, ip, intraperitoneal injection, dose at which 50% of the mice failed to back out within 30 seconds, read-out: ED50, Ch = chimney test. From the text: (§1) The free bases and acid addition salts of the novel compounds of Formula I are useful as central nervous system (CNS) depressants when administered to humans and animals.
(§2) Tranquilizing effects of certain compounds of this invention are shown by the following tests in mice:
Chimney test: [Med. Exp. 4, 145 (1961)]: The test determines the ability of mice to back up and out of a vertical glass cylinder within 30 seconds. At the effective dosage, 50% of the mice failed doing it.

Experiment [2] concerns mice. Put plainly: Dish test (mice remaining in Petri dish for more than 3 minutes). The following applies: Mus musculus, ip, 0.05 h, intraperitoneal injection, dose at which 50% of the mice remain in the dish more than 3 minutes, read-out: ED50, D = dish test. The protocol: as §1, §2
Dish test: Mice in Petri dishes (10 cm. diameter, 5 cm. high, partially embedded in wood shavings), climb out in a very short time, when not treated. Mice remaining in the dish for more than 3 minutes indicates tranquilization. ED50 equals the dose of test compound at which 50% of the mice remain in the dish.

For experiment [3], the system named is mice. The experiment is described as follows: Pedestal test (mice staying on the pedestal for more than 1 minute). Conditions: Mus musculus, ip, 1 min, intraperitoneal injection, stay on pedestal for more than 1 minute, read-out: ED50, P = pedestal test. The protocol: as §1, §2
Pedestal test: The untreated mouse leaves a standard pedestal in less than a minute to climb back to the floor of the standard mouse box. Tranquilized mice will stay on the pedestal for more than 1 minute.

Experiment [4] has as its system mice. Put plainly: Nicotine antagonism test (nicotine salicylate 2 mg./kg.; (3) death). Conditions: Mus musculus, ip, intraperitoneal injection 30 minutes before nicotine salicylate (2 mg./kg.), read-out: ED50, Ni = nicotine antagonism (3) test. The protocol: as §2
Nicotine antagonism test: Mice in a group of 6 are injected with the test compound. Thirty minutes later the mice including control (untreated) mice are injected with nicotine salicylate (2 mg./kg.). The control mice show overstimulation, i.e., (1) running convulsions followed by (2) tonic extensor fits; followed by (3) death.

In the case of `CO[C@]1(c2ccc(F)cc2)CC[C@@H](NCCCC(=O)c2ccc(F)cc2)CC1` [4'-fluoro-4-{[4-cis-(p-fluorophenyl)-4-transmethoxycyclohexyl]amino}butyrophenone hydrohydrochloride (I)], the median effective dose (ED50) was determined as 8 mg/kg in the experiment with mice [1], 1.6 mg/kg with mice [2], 2.5 mg/kg with mice [3] and 3.2 mg/kg in the experiment with mice [4].

On to `CO[C@]1(c2ccc(C)cc2)CC[C@H](NCCCC(=O)c2ccc(F)cc2)CC1` [4'-fluoro-4-{[4-cis-methoxy-4-trans-(p-methylphenyl)cyclohexyl]amino}butyrophenone hydrochloride (I)], for which the ED50 stood at 2.5 mg/kg with mice [1], 1.1 mg/kg in the experiment on mice [2], 2 mg/kg in the experiment with mice [3] and 4.5 mg/kg with mice [4].

`CO[C@]1(c2ccc(F)cc2)CC[C@H](NCCCC(=O)c2ccc(F)cc2)CC1` [4'-fluoro-4-{[4-trans-(p-fluorophenyl)-4-cis-methoxycyclohexyl]amino}butyrophenone hydrochloride (I)]: the 50% effective dose (ED50) in the experiment with mice [1] turned out to be 2.5 mg/kg; with mice [2], 0.09 mg/kg; in the experiment with mice [3], 1.3 mg/kg; with mice [4] it was 0.4 mg/kg.
